Assay results as given in US6872562B2, “Herbicide resistant dinitrogen fixing bacteria and method of use” (priority 2001, dated 2005).

Experiments:
[1] = test system: GR soybean cultivars A4501RR, A5901RR, DK5961RR, H5164RR, TV5866RR; assay: Greenhouse Example 2: sensitivity of five GR soybean cultivars to glyphosate; format: in vivo, soybean (Glycine max); settings: 40 DAE
From the text: The other plants were not treated and served as controls. […] The experiment was a completely random design with six replications.

[2] = test system: soybean cultivar DK5961RR; assay: Greenhouse Example 3: response to glyphosate with and without available soil nitrogen; format: in vivo, soybean (Glycine max)
Experimental: Treatments were a factorial arrangement of two harvest dates, plus and minus soil nitrogen, and plus and minus glyphosate application. Experimental conditions were similar to those described for Examples 1 and 2, including timing of nutrient applications. […] Plants were harvested at 19 and 40 DAE as described previously. For the plus nitrogen treatment, plants harvested at 19 and 40 DAE received in the nutrient solution at total of 150 and 300 mg N as NO3^−1, respectively. The experiment was a randomized complete block with six replications and was repeated.

cultivar TV5866RR = assay: Growth cabinet: nitrogenase activity (relative ARA) under soil-water deficits; format: in vivo, soybean (Glycine max)
Experimental: Plants were established in flow-through pots (Purcell et al., 1997) for nondestructive measurement of acetylene-reduction activity (ARA) as an indicator of relative nitrogenase activity. Pots were constructed of 10-cm-diameter, 40-cm-long polyvinyl chloride pipe, sealed at the bottom and top with end caps. Fittings were inserted into the bottom for drainage and introduction of air samples during ARA measurements, and into the top for air exhaust and sampling. Pot tare weights were recorded prior to adding potting mixture. Potting media and nutrients were the same as described in Examples 1-3. […] After allowing excess water to drain for 12 h, pot capacity weights were recorded. […]
ARA was measured beginning 28 DAE by introducing a 9:1 air to acetylene mixture at 0.5 L min^−1 into the bottom of the pots that were sealed around the plant root system. […] Ethylene concentration in the gas samples was quantified by gas chromatography using a flame ionization detector and a Porapak N column (de Silva et al., 1996). […] Ethylene concentrations were expressed as μmol C2H4 plant^−1h^−1, and means within an experiment and sample date were compared using standard errors. […]
Soil-water data were converted from pot capacity weight to fraction of the transpirable soil water (FTSW) (de Silva et al., 1996). […] Soil weight at zero transpirable water was determined to be 0.24 of the soil weight at pot capacity. […]

Wild type USDA 110 = assay: Growth in Tulley's media with 5 mM glyphosate, wild type (Example 7); format: cell-based, Bradyrhizobium japonicum
Experimental: (§1) Duplicate cultures were evaluated from each of the original colony selections. […] The cultures were allowed to grow for 14 days, and then the OD of each culture was measured.

[3] = test system: selected B. japonicum cultures (from USDA 110); assay: Growth in Tulley's media with 5 mM glyphosate, colonies selected in Example 6 (Example 7); format: cell-based, Bradyrhizobium japonicum
Experimental: as §1

Strains USDA 123 and 138 = settings: 5 mM concentration; cited from earlier work
[4] = DK5961RR, Harvest 1 (19 DAE), soil nitrogen no
[5] = DK5961RR, Harvest 1 (19 DAE), soil nitrogen yes
[6] = DK5961RR, Harvest 2 (40 DAE), averaged over soil nitrogen treatments

Question: With `O=C(O)CNCP(=O)(O)O` [glyphosate, N-(phosphonomethyl)glycine] as the compound, how does the Shoot mass effect [1] read?
Answer: decreased

Question: What about the “Biomass Nodule” value ([1]; A4501RR, E + L treatment) of the same compound?
Answer: 0.47 g plant^−1

Question: And the “Biomass Root” value ([1]; A4501RR, E + L treatment)?
Answer: 1.22 g plant^−1

Question: And the “Biomass Shoot” value ([1]; A4501RR, E + L treatment)?
Answer: 4.55 g plant^−1

Question: What about the “Nitrogen Root” value ([1]; A4501RR, E + L treatment) of the same compound?
Answer: 45 mg plant^−1

Question: What about the “Nitrogen Shoot” value ([1]; A4501RR, E + L treatment) of the same compound?
Answer: 185 mg plant^−1

Question: And the Nodule biomass effect ([1]; A5901RR)?
Answer: increased

Question: What about the “Biomass Nodule” value ([1]; A5901RR, E + L treatment) of the same compound?
Answer: 0.54 g plant^−1

Question: What about the “Biomass Root” value ([1]; A5901RR, E + L treatment) of the same compound?
Answer: 0.93 g plant^−1

Question: And the “Biomass Shoot” value ([1]; A5901RR, E + L treatment)?
Answer: 4.03 g plant^−1

Question: And the “Nitrogen Root” value ([1]; A5901RR, E + L treatment)?
Answer: 45 mg plant^−1

Question: What about the “Nitrogen Shoot” value ([1]; A5901RR, E + L treatment) of the same compound?
Answer: 163 mg plant^−1

Question: And the Nodule mass effect ([1]; DK5961RR)?
Answer: decreased

Question: And the “Biomass Nodule” value ([1]; DK5961RR, E + L treatment)?
Answer: 0.40 g plant^−1

Question: And the “Biomass Root” value ([1]; DK5961RR, E + L treatment)?
Answer: 0.74 g plant^−1

Question: What about the “Biomass Shoot” value ([1]; DK5961RR, E + L treatment) of the same compound?
Answer: 3.41 g plant^−1

Question: And the “Nitrogen Root” value ([1]; DK5961RR, E + L treatment)?
Answer: 31 mg plant^−1

Question: And the “Nitrogen Shoot” value ([1]; DK5961RR, E + L treatment)?
Answer: 142 mg plant^−1

Question: What about the “Biomass Nodule” value ([1]; H5164RR, E + L treatment) of the same compound?
Answer: 0.47 g plant^−1

Question: What about the “Biomass Root” value ([1]; H5164RR, E + L treatment) of the same compound?
Answer: 1.18 g plant^−1

Question: And the “Biomass Shoot” value ([1]; H5164RR, E + L treatment)?
Answer: 4.36 g plant^−1

Question: And the “Nitrogen Root” value ([1]; H5164RR, E + L treatment)?
Answer: 46 mg plant^−1

Question: And the “Nitrogen Shoot” value ([1]; H5164RR, E + L treatment)?
Answer: 170 mg plant^−1

Question: What about the “Biomass Root” value ([1]; TV5866RR, E + L treatment) of the same compound?
Answer: 0.71 g plant^−1

Question: And the “Biomass Shoot” value ([1]; TV5866RR, E + L treatment)?
Answer: 3.07 g plant^−1

Question: And the “Nitrogen Root” value ([1]; TV5866RR, E + L treatment)?
Answer: 35 mg plant^−1

Question: And the “Nitrogen Shoot” value ([1]; TV5866RR, E + L treatment)?
Answer: 131 mg plant^−1

Question: What about the “Biomass Nodule” value ([1]; TV5866RR, E + L: 1.68 kg ai ha^−1 at 5, 10, 18, 25, and 32 DAE) of the same compound?
Answer: 0.34 g plant^−1

Question: What about the “Measured biomass or nitrogen parameters” value ([1]; cultivars A5901RR or H5164RR) of the same compound?
Answer: None of the measured biomass or nitrogen parameters were decreased

Question: And the “Plant biomass or nitrogen content effect” value ([2]; DK5961RR, 19 DAE, without soil nitrogen)?
Answer: did not decrease

Question: What about the “Biomass Root” value [2, 4] of the same compound?
Answer: 0.30b g plant^−1

Question: And the “Biomass Shoot” value [2, 4]?
Answer: 0.63bc g plant^−1

Question: What about the “Nitrogen Root” value [2, 4] of the same compound?
Answer: 7.53b mg plant^−1

Question: And the “Nitrogen Shoot” value [2, 4]?
Answer: 22.2c mg plant^−1

Question: What about the “Biomass Shoot” value [2, 5] of the same compound?
Answer: 0.58c g plant^−1

Question: And the “Nitrogen Root” value [2, 5]?
Answer: 5.77c mg plant^−1

Question: And the “Nitrogen Shoot” value [2, 5]?
Answer: 31.0b mg plant^−1

Question: What about the “Biomass Root” value ([2]; DK5961RR, Harvest 1 (19 DAE), soil nitrogen yes, 1.68 kg ha^−1 5 and 12 DAE) of the same compound?
Answer: 0.20c g plant^−1

Question: And the “Biomass Root” value [2, 6]?
Answer: 0.48 g plant^−1

Question: What about the “Biomass Shoot” value [2, 6] of the same compound?
Answer: 1.81 g plant^−1

Question: And the “Nitrogen Root” value [2, 6]?
Answer: 11.1 mg plant^−1

Question: What about the “Nitrogen Shoot” value [2, 6] of the same compound?
Answer: 70.7 mg plant^−1

Question: And the “Shoot nitrogen content decrease” value ([2]; Harvest 2 (40 DAE), averaged across soil nitrogen treatments)?
Answer: 13%

Question: And the “Sensitivity of ARA to water deficits vs untreated plants” value (cultivar TV5866RR; in vivo)?
Answer: more sensitive

Question: And the “Nitrogenase activity, % of the well-watered control” value (cultivar TV5866RR; water-deficit plants at FTSW of 0.21, 1.68 kg ha^−1 on 5, 12, and 19 DAE)?
Answer: 71%

Question: And the “Growth, % of USDA 110 in the absence of glyphosate” value (Wild type USDA 110; 14 days)?
Answer: 33%

Question: And the OD600 (Wild type USDA 110; USDA 110, after 14 days)?
Answer: 0.44 b^

Question: What about the “Growth, % of wild type USDA 110 in the absence of glyphosate” value ([3]; 45 selected colonies averaged, liquid culture, 14 days) of the same compound?
Answer: 27%

Question: And the OD600 ([3]; Selected cultures, averaged over all strains, after 14 days)?
Answer: 0.36 b^

Question: And the Inhibition (Strains USDA 123 and 138)?
Answer: 100%
